PubChem BioAssay AID328 (DTP/NCI, 2004)
Several values for one entry are separate records, joined by “and”; a condition that tells them apart may be missing. Identical values can stand only once. Inconclusive results and toxic doses are left out.

Test system: BDF1 mice, P388 leukemia ip, median survival T/C
Assay: NCI In Vivo Anticancer Drug Screen. Data for tumor model P388 Leukemia (intraperitoneal) in B6D2F1 (BDF1) mice
Settings: endpoint: median survival time, higher = longer survival
How it was run: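 In tumour-bearing mice, survival after compound treatment is set against the vehicle group and given as a quotient.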

[1] = dose: 12.5 mg/kg/injection, schedule: Q01DX009 (ip), vehicle: saline with Tween-80
[2] = dose: 25.0 mg/kg/injection, schedule: Q01DX009 (ip), vehicle: saline with Tween-80
[3] = dose: 50.0 mg/kg/injection, schedule: Q01DX009 (ip), vehicle: saline with Tween-80
[4] = dose: 100.0 mg/kg/injection, schedule: Q04DX003 (ip), vehicle: saline with Tween-80
[5] = dose: 200.0 mg/kg/injection, schedule: Q04DX003 (ip), vehicle: saline with Tween-80
[6] = dose: 200.0 mg/kg/injection, schedule: Q04DX002 (ip), vehicle: saline with Tween-80

CCSc1ncc(C)c(Cl)n1
T/C (dose: 100.0 mg/kg/injection, schedule: Q01DX009 (ip), vehicle: water): 107 % of control
T/C (dose: 100.0 mg/kg/injection, schedule: Q04DX003 (ip), vehicle: water): 105 % of control
T/C (dose: 200.0 mg/kg/injection, schedule: Q01DX009 (ip), vehicle: water): 99 % of control
T/C (dose: 200.0 mg/kg/injection, schedule: Q04DX003 (ip), vehicle: water): 107 % of control
T/C (dose: 400.0 mg/kg/injection, schedule: Q01DX009 (ip), vehicle: water): 108 % of control
T/C (dose: 400.0 mg/kg/injection, schedule: Q04DX003 (ip), vehicle: water): 103 % of control

O=C1c2ccccc2C(=O)c2c(Cl)cccc21
T/C [1]: 113 % of control
T/C [2]: 100 % of control
T/C [3]: 100 % of control
T/C [4]: 95 % of control
T/C [5]: 100 % of control
T/C (dose: 400.0 mg/kg/injection, schedule: Q04DX003 (ip), vehicle: saline with Tween-80): 95 % of control

COC(=O)/C=C/CCBr
T/C (dose: 100.0 mg/kg/injection, schedule: Q04DX002 (ip), vehicle: saline with Tween-80): 104 % of control
T/C [6]: 109 % of control
T/C (dose: 400.0 mg/kg/injection, schedule: Q04DX002 (ip), vehicle: saline with Tween-80): 114 % of control

[N-]=[N+]=CC(=O)CCC(N)C(=O)O (stereo not given)
T/C (dose: 0.03 mg/kg/injection, schedule: Q01DX010 (ip), vehicle: saline): 113 % of control
T/C (dose: 0.1 mg/kg/injection, schedule: Q01DX010 (ip), vehicle: saline): 170 % of control
T/C (dose: 0.1 mg/kg/injection, schedule: Q01DX010 (ip), vehicle: water): 150 % of control
T/C (dose: 0.2 mg/kg/injection, schedule: Q01DX010 (ip), vehicle: saline): 95 % of control and 100 % of control
T/C (dose: 0.2 mg/kg/injection, schedule: Q01DX010 (ip), vehicle: water): 190 % of control
T/C (dose: 0.4 mg/kg/injection, schedule: Q01DX010 (ip), vehicle: water): 155 % of control
T/C (dose: 0.6 mg/kg/injection, schedule: Q01DX010 (ip), vehicle: water): 95 % of control and 120 % of control
T/C (dose: 0.8 mg/kg/injection, schedule: Q01DX010 (ip), vehicle: water): 100 % of control
T/C (dose: 2.5 mg/kg/injection, schedule: Q02DX005 (oral), vehicle: other): 163 % of control
T/C (dose: 5.0 mg/kg/injection, schedule: Q02DX005 (oral), vehicle: other): 159 % of control
T/C (dose: 10.0 mg/kg/injection, schedule: Q02DX005 (oral), vehicle: other): 186 % of control
T/C (dose: 15.0 mg/kg/injection, schedule: Q02DX005 (oral), vehicle: other): 218 % of control
T/C (dose: 20.0 mg/kg/injection, schedule: Q02DX005 (oral), vehicle: other): 86 % of control

CC1(C#N)CCC(CCc2ccccc2)C(=O)C1 (stereo not given)
T/C (dose: 75.0 mg/kg/injection, schedule: Q04DX003 (ip), vehicle: saline): 95 % of control
T/C (dose: 150.0 mg/kg/injection, schedule: Q04DX003 (ip), vehicle: saline): 87 % of control
T/C (dose: 300.0 mg/kg/injection, schedule: Q04DX003 (ip), vehicle: saline): 104 % of control

CCOC(=O)C(C(=O)OCC)=C(C)OCC
T/C (dose: 6.25 mg/kg/injection, schedule: Q01DX009 (ip), vehicle: saline with Tween-80): 106 % of control
T/C [1]: 86 % of control
T/C [2]: 97 % of control
T/C (dose: 25.0 mg/kg/injection, schedule: Q04DX003 (ip), vehicle: saline with Tween-80): 99 % of control
T/C [3]: 97 % of control
T/C (dose: 50.0 mg/kg/injection, schedule: Q04DX003 (ip), vehicle: saline with Tween-80): 107 % of control
T/C (dose: 100.0 mg/kg/injection, schedule: Q01DX009 (ip), vehicle: saline with Tween-80): 106 % of control
T/C [4]: 90 % of control
T/C [5]: 107 % of control

CC1=C/C(=C/c2ccccc2)CC(C)(C)C1 (tested in a mixture with another compound)
T/C (dose: 25.0 mg/kg/injection, schedule: Q01DX009 (ip), vehicle: saline sonified): 104 % of control
T/C (dose: 50.0 mg/kg/injection, schedule: Q01DX009 (ip), vehicle: saline sonified): 100 % of control
T/C (dose: 100.0 mg/kg/injection, schedule: Q01DX009 (ip), vehicle: saline sonified): 100 % of control

NC(Cc1ccccc1Cl)c1nn[nH]n1 (stereo not given)
T/C (dose: 50.0 mg/kg/injection, schedule: Q04DX002 (ip), vehicle: saline with Tween-80): 100 % of control
T/C [6]: 121 % of control
